This is an account of results in publication PMC4488747, “Inhibition of P-glycoprotein Gene Expression and Function Enhances Triptolide-induced Hepatotoxicity in Mice” (Scientific Reports, 2015).

The target in one data set is T1, P-gp (Mus musculus, UniProt P21447).
T1 construct: from tissue; host or cells: whole living mice (in vivo, intravenous digoxin 1 mg/kg after NC-siRNA or mdr1a-1 siRNA)
The data set can be described thus: P-gp function in knockdown mice assessed by digoxin plasma pharmacokinetics. The format is in vivo. The settings on record: iv, 1 mg/kg, digoxin 1 mg/kg injection. As to the method:
For validation of silence efficiency in vivo, mdr1a-1 siRNA was injected via the tail vein of mice after diluted to 5, 10 and 15 nmol with saline in 200 μl. After 48 h, the mice were euthanized and the liver was collected for measurement of the P-gp protein expression using western blot. The P-gp function in gene knockdown mice was assessed using digoxin, a known P-gp substrate. NC-siRNA or mdr1a-1 siRNA was intravenously injected 2 days prior to the injection of digoxin (1mg/kg). Blood samples were collected at 5, 15, 30, min and 1, 2, 4, 6, 8, 12 hours post digoxin dose (n = 5/time-point for each group). The digoxin concentrations in samples were quantitatively analyzed by a published LC-MS/MS method.
Toxicokinetic parameters, including area under the plasma concentration-time curve (AUC), volume of distribution (Vd), clearance (CL), mean residence time (MRT) and terminal elimination half-life (t1/2), were calculated by non-compartmental analysis using WinNonlin 5.2 software (Pharsight Corporation, CA, USA). All the data were expressed as mean ± SD. Differences between groups were compared by Student’s t-test for analysis of unpaired data or one-way ANOVA. Statistical significance was accepted at P < 0.05.

The subject of the next data set is mdr1a mRNA. Kind of data set: RNAi knockdown of mdr1a mRNA in CT26.WT cells (real-time PCR). The class given is cell-based, mouse. Conditions: siRNA 80 pM with Lipofectamin 2000, 48 h after transfection. Here is the method:
CT26.WT cells, a mouse colon carcinoma cell line, were obtained from ATCC and maintained in RPMI-1640 supplemented with 10% fetal bovine serum. Cells were seeded to 6-well plates at a density of 5 × 10^5 cells/well and cultured for 24 h. Transfection was performed in Opti-MEM (Invitrogen, Carlsbad, CA, USA) with synthetic siRNA (80 pM) by using Lipofectamin 2000 (Invitrogen, Carlsbad, CA, USA) for 6 h and the medium was replaced with fresh RPMI-1640. This condition was optimized in our preliminary experiments based on the transfection efficiency and the cellular viability. Following incubation for 48 h, the cells were washed three times with phosphate buffered saline buffer (PBS) and total RNA and protein were collected.
Total RNA from CT26. WT cells was extracted with Trizol (Invitrogen, Carlsbad, CA, USA) according to the manufacturer’s instructions. RNA samples (1 μg) were reverse transcribed by adding oligo(dT)18 (MBI Fermentas, USA), dNTP, RNase inhibitor, and M-MLV reverse transcriptase (Takara, Japan), holding at room temperature for 10 min and incubating at 42 °C for 60 min. The samples were heated at 72 °C to inactivate enzymes for 10 min and stored at −20 °C. Real-time PCR was performed using sense and antisense primers. […] The relative amount of target mRNA was determined using the comparative threshold (Ct) method by normalizing target mRNA Ct values to those for β-actin (ΔCt). […]
(Quantitative PCR measures a nucleic acid by following its amplification.)

Data set [1] in a line: Preliminary experiment: effect of NC-siRNA on pharmacokinetics of TP in mice. The format is in vivo. Conditions: TP 1.0 mg/kg. Here is the method:
Effect of NC-siRNA on pharmacokinetic of TP
Mice were divided into two groups to collect blood samples (n=5 each): (1) 1.0 mg/kg TP + saline group; (2) 1.0 mg/kg TP + 15 nmol NC-siRNA group. The siRNA group was intravenously injected with NC-siRNA 2 days before TP dose. Blood samples were collected at 2, 5, 10, 15, 30, 60 and 120 min after TP dosing. The concentrations of TP in plasma and liver were measured by a validated LC-MS/MS method.

Data set [2] has as its system BALB/C mice. The data set can be described thus: Serum ALT and AST (TP-induced hepatotoxicity) in mice. The class given is in vivo. The settings on record: TP 1 mg/kg iv with P-gp modulator, 24 h after TP. As to the method:
For TP plasma kinetic study and toxicological evaluation, mice were divided into four groups (n = 5 each) to collect blood and tissue samples: (1) normal + saline group; (2) 1.0 mg/kg TP + 15 nmol NC-siRNA group; (3) 1.0 mg/kg TP + 15 nmol mdr1a-siRNA group; (4) 1.0 mg/kg TP + 10 mg/kg tariquidar group. In order to avoid the complication caused by drug absorption or possible intestinal first-pass effect, TP and the inhibitor were intravenously administrated to mice. The siRNA group was intravenously injected with NC-siRNA or mdr1a-siRNA 2 days before TP dose. For TP + tariquidar group, the mice were received an intravenous tariquidar dose 20 min prior to the TP injection. Blood samples were collected at 2, 5, 10, 15, 30, 60 and 120 min after TP dosing. To assess the liver exposure of TP, liver tissue samples were collected from another set of mice at 5, 30, 60 and 120 min after dosing. Three TP groups were design for this experiment, including TP + NC-siRNA group, TP + mdr1a-siRNA group and TP + tariquidar group. The liver tissue samples were weighed and then homogenized in 10 volume (w:v) of ice-cold saline. The concentrations of TP in plasma and liver tissue were measured by a validated LC-MS/MS method. Prior to the above animal study, a preliminary experiment was performed to assess the possible differences in liver P-gp protein expression (Figure S1) and TP plasma kinetics between NC-siRNA treated mice and normal mice (with saline) (Figure S2 and supplemental Table 1). […] Therefore, NC-siRNA group was used as the control in the following animal study.
(§1) At 24 h of TP treatment, blood and liver tissue samples were collected from the mice in plasma kinetic study. Serum ALT and AST levels were determined with a CL8000 automated biochemical analyzer (Shimadzu, Japan) after serum was separated by centrifugation at 900 g for 10 min. Liver tissue samples were divided into two parts, the first half was kept at −80 °C until MDA and SOD measurements using MDA and SOD assay kits (Nanjing Jiancheng Bioengineering Institute, Nanjing, China) according to the manufacturer’s instructions. The other half was fixed with 4% paraformaldehyde solution and then dehydrated, embedded in paraffin and sectioned at a thickness of 5 μm. Four paraffin sections from each mouse were dewaxed, rehydrated and stained with hematoxylin-eosin (HE) for overall morphological evaluation. The total protein concentration was quantified by the BCA assay. Bcl-2 and Bax proteins were measured by western blot.

The subject of data set [3] is BALB/C mice. The data set can be described thus: Liver histopathology (HE staining) in mice. The format is in vivo. The settings on record: TP 1 mg/kg iv, 24 h, TP = NC-siRNA group, tariquidar and mdr1a-1 siRNA = given before TP. Here is the method: For TP plasma kinetic study and toxicological evaluation, mice were divided into four groups (n = 5 each) to collect blood and tissue samples: (1) normal + saline group; (2) 1.0 mg/kg TP + 15 nmol NC-siRNA group; (3) 1.0 mg/kg TP + 15 nmol mdr1a-siRNA group; (4) 1.0 mg/kg TP + 10 mg/kg tariquidar group. In order to avoid the complication caused by drug absorption or possible intestinal first-pass effect, TP and the inhibitor were intravenously administrated to mice. The siRNA group was intravenously injected with NC-siRNA or mdr1a-siRNA 2 days before TP dose. For TP + tariquidar group, the mice were received an intravenous tariquidar dose 20 min prior to the TP injection. Blood samples were collected at 2, 5, 10, 15, 30, 60 and 120 min after TP dosing. To assess the liver exposure of TP, liver tissue samples were collected from another set of mice at 5, 30, 60 and 120 min after dosing. […] The concentrations of TP in plasma and liver tissue were measured by a validated LC-MS/MS method. […]
At 24 h of TP treatment, blood and liver tissue samples were collected from the mice in plasma kinetic study. Serum ALT and AST levels were determined with a CL8000 automated biochemical analyzer (Shimadzu, Japan) after serum was separated by centrifugation at 900 g for 10 min. […] The total protein concentration was quantified by the BCA assay. Bcl-2 and Bax proteins were measured by western blot.

For another data set, the system named is Bcl-2/Bax. The data set can be described thus: Bcl-2 and Bax expression in mouse liver (western blot). The format is in vivo. Conditions: mice, TP 1 mg/kg iv, 24 h; tariquidar and mdr1a-siRNA = given before TP. As to the method:
For protein extraction, the cells or mice liver tissues were homogenized in RIPA buffer and then centrifuged at 14,000 g at 4 °C for 30 min. The supernatant was collected and the protein concentration was measured using BCA assay. The sample (50 μg protein/sample) was then loaded on 12% polyacrylamide gels and transferred to polyvinylidene difluoride membranes (Millipore, USA). After blocked by 3% bovine serum albumin, the membranes were incubated with primary antibodies and HRP-conjugated secondary antibody, and then detected using the enhanced chemiluminescence plus detection system (Molecular Device, Lmax, USA). The density of each band was quantified by using image analysis software (Science Lab 2005 Image Guage; Tokyo, Japan).
as §1, with “The other half was fixed with 4% paraformaldehyde solution and then dehydrated, embedded in paraffin and sectioned at a thickness of 5 μm. Four paraffin sections from each mouse were dewaxed, rehydrated and stained with hematoxylin-eosin (HE) for overall morphological evaluation.” left out
(A western blot detects proteins with antibodies after separation by electrophoresis.)

d = 2'-deoxy (DNA)

T1 sequence (P21447 whole entry): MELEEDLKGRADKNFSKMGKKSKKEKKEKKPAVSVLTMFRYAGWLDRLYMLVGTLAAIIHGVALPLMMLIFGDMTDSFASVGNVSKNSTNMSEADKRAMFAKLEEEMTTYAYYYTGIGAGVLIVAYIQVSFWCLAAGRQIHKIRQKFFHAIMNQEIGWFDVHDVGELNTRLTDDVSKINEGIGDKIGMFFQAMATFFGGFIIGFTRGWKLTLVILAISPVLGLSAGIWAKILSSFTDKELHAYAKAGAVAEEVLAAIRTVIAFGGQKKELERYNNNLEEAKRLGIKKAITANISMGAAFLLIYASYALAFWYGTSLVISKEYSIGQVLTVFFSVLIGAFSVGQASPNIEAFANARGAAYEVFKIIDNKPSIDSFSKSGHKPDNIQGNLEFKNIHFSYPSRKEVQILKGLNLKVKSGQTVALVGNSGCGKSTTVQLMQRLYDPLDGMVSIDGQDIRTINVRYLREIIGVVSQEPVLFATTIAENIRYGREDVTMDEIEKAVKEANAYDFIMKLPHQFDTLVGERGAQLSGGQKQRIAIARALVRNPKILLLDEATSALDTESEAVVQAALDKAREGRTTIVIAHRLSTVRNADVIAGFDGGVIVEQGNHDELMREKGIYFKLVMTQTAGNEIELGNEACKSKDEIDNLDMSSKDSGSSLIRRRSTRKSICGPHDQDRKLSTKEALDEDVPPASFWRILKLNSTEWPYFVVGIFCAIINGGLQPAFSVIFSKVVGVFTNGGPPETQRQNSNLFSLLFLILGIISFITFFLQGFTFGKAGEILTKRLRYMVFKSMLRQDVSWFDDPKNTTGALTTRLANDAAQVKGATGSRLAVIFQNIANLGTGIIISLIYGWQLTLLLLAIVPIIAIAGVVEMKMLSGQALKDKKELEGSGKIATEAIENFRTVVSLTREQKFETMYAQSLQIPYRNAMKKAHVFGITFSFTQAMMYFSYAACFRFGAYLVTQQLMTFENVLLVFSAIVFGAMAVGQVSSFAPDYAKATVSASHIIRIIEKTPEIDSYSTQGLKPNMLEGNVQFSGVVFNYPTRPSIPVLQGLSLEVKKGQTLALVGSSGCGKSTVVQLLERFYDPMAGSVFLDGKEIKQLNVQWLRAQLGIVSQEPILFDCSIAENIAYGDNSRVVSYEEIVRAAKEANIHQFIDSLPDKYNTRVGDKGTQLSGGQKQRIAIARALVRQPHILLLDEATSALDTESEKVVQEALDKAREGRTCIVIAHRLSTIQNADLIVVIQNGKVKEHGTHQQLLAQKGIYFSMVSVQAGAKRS

By AUC(0-t) is commonly meant exposure summed from dosing to a finite time, without extrapolation to infinity. Higher therefore signals more exposure. Usually Cmax stands for the peak of the concentration-time curve. The MRT is the average time that molecules of a dose stay in the body. What is called Vd is a proportionality between amount in the body and measured concentration, not a real space. High values mean wide distribution into tissue, low ones little distribution into tissue. By clearance is commonly meant a measure of how efficiently the substance is removed, as volume per time. A lower clearance goes with a low capacity for elimination. By half-life is commonly meant the time needed for the level to fall by half in the phase considered. Consider `C[C@H]1O[C@@H](O[C@H]2[C@@H](O)C[C@H](O[C@H]3[C@@H](O)C[C@H](O[C@H]4CC[C@@]5(C)[C@H](CC[C@@H]6[C@@H]5C[C@@H](O)[C@]5(C)[C@@H](C7=CC(=O)OC7)CC[C@]65O)C4)O[C@@H]3C)O[C@@H]2C)C[C@H](O)[C@@H]1O` [Digoxin, digoxin], for which, on P-gp (NC-siRNA iv 2 days prior), the AUC(0-t) came to 3360 ± 739 ng·h/mL, the Cmax was determined as 1740 ± 574 ng/mL, the MRT stood at 3.7 ± 0.3 h and the Vd was determined as 2 ± 0.5 L/kg. At P-gp (NC-siRNA iv 2 days prior), this compound gave a clearance of 4.21 mL/min/kg and a half-life of 5.7 ± 1.3 h. In addition, at P-gp (mdr1a-1 siRNA iv 2 days prior), the AUC(0-t) amounted to 8770 ± 1450 ng·h/mL, the Cmax was 2260 ± 267 ng/mL, the MRT was 3.8 ± 0.4 h and the Vd was 0.6 ± 0.08 L/kg. Moreover, at P-gp (mdr1a-1 siRNA iv 2 days prior), the clearance is 1.66 mL/min/kg and the half-life is 4 ± 1.4 h.
As to “mdr1a-2: murine mdr1a siRNA, sense 5′-r(AGA AGGAAC UAG AAG GUU CUG) d(TT)-3′ (sense AGAAGGAACUAGAAGGUUCUG; antisense CAGAACCUUCUAGUUCCUUCU; RNA, 3' dTdT, backbone and methylation of C not given here; 3' and 5' ends modified with methylation and cholesterol)”, the “Silencing efficiency on mdr1a mRNA” value in the data set with mdr1a mRNA was 51%.
For “NC-siRNA: negative control siRNA, sense 5′-UUCUCCGAACGUGUCACGUTT-3′ (antisense ACGUGACACGUUCGGAGAATT; sugars by position and backbone not given here; 3' and 5' ends modified with methylation and cholesterol) [reference compound]”, the “Differences in TP plasma concentrations and kinetic parameters, NC-siRNA treated vs normal (saline) mice” value in data set [1] is recorded as “No significant differences”.
Turning to `COc1cc2c(cc1OC)CN(CCc1ccc(NC(=O)c3cc(OC)c(OC)cc3NC(=O)c3cnc4ccccc4c3)cc1)CC2` [tariquidar, Tariquidar, reference compound], in the data set with BALB/C mice [2], the “Serum ALT level, folds of the TP+NC-siRNA group” value was 1.2 folds and the “Serum AST level, folds of the TP+NC-siRNA group” value is listed as 1.9 folds. The “Histopathological changes in liver (HE)” value with BALB/C mice [3] is “more severe”. The “Bcl-2/Bax ratio in liver” value in the data set on Bcl-2/Bax is reported as “markedly reduced the ratio”.
In the case of “mdr1a-3: murine mdr1a siRNA, sense 5′-GGCUGGACAAGCUGUGCAUGG-3′ (antisense AUGCACAGCUUGUCCAGCCAA; sugars by position and backbone not given here; 3' and 5' ends modified with methylation and cholesterol)”, in the data set on mdr1a mRNA, the “Silencing efficiency on mdr1a mRNA” value is given as 46%.
